Experimental data published in PubChem BioAssay AID256 (DTP/NCI, 2004).
Where “and” joins values, the source holds several entries; their conditions need not be identical. Equal values may be shown once. Inconclusive results and toxic doses are left out. The calls were made as follows: active = survival T/C of 150% or more; inactive = T/C below 125% in these data.

Tested on: CD2F1 mice, L1210 leukemia ip, survival T/C
Assay: NCI In Vivo Anticancer Drug Screen. Data for tumor model L1210 Leukemia (intraperitoneal) in CD2F1 (CDF1) mice
Conditions: endpoint: mean survival time, higher = longer survival
Outline: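 Compound-dosed mice with transplantable tumor versus matched vehicle controls; endpoint ratio T/C reported.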

[1] = dose: 100.0 mg/kg/injection, schedule: Q01DX009 (ip), vehicle: saline with Tween-80
[2] = dose: 200.0 mg/kg/injection, schedule: Q01DX009 (ip), vehicle: saline with Tween-80
[3] = dose: 400.0 mg/kg/injection, schedule: Q01DX009 (ip), vehicle: saline with Tween-80
[4] = dose: 25.0 mg/kg/injection, schedule: Q04DX002 (ip), vehicle: saline with Tween-80
[5] = dose: 50.0 mg/kg/injection, schedule: Q04DX002 (ip), vehicle: saline with Tween-80
[6] = dose: 100.0 mg/kg/injection, schedule: Q04DX002 (ip), vehicle: saline with Tween-80
[7] = dose: 200.0 mg/kg/injection, schedule: Q04DX002 (ip), vehicle: saline with Tween-80
[8] = dose: 100.0 mg/kg/injection, schedule: Q04DX003 (ip), vehicle: Klucel (hydroxypropylcellulose) (HPC)
[9] = dose: 200.0 mg/kg/injection, schedule: Q04DX003 (ip), vehicle: Klucel (hydroxypropylcellulose) (HPC)
[10] = dose: 400.0 mg/kg/injection, schedule: Q04DX003 (ip), vehicle: Klucel (hydroxypropylcellulose) (HPC)
[11] = dose: 100.0 mg/kg/injection, schedule: Q01DX001 (ip), vehicle: saline
[12] = dose: 200.0 mg/kg/injection, schedule: Q01DX001 (ip), vehicle: saline
[13] = dose: 400.0 mg/kg/injection, schedule: Q01DX001 (ip), vehicle: saline
[14] = dose: 100.0 mg/kg/injection, schedule: Q04DX003 (ip), vehicle: saline with Tween-80
[15] = dose: 200.0 mg/kg/injection, schedule: Q04DX003 (ip), vehicle: saline with Tween-80
[16] = dose: 400.0 mg/kg/injection, schedule: Q04DX003 (ip), vehicle: saline with Tween-80

Measured: T/C

Cc1cccc(C(=O)CC(O)(C(F)(F)F)C(F)(F)F)c1
inactive: [1] 98 % of control | [2] 95 % of control | [3] 104 % of control

C=CN
inactive: [4] 95 % of control | [5] 106 % of control | [6] 98 % of control | [7] 98 % of control

CC(C)(C)c1ccc(O)c(C(=O)N/N=C/c2ccccc2O)c1
inactive: dose: 100.0 mg/kg/injection, schedule: Q01DX001 (ip), vehicle: saline with Tween-80 97 % of control | dose: 200.0 mg/kg/injection, schedule: Q01DX001 (ip), vehicle: saline with Tween-80 104 % of control | dose: 400.0 mg/kg/injection, schedule: Q01DX001 (ip), vehicle: saline with Tween-80 93 % of control

CN1C2CCC1C(CCl)C(O)C2 (stereo not given)
inactive: dose: 50.0 mg/kg/injection, schedule: Q01DX009 (ip), vehicle: saline 97 % of control | dose: 100.0 mg/kg/injection, schedule: Q01DX009 (ip), vehicle: saline 104 % of control | dose: 200.0 mg/kg/injection, schedule: Q01DX009 (ip), vehicle: saline 101 % of control

CC(C)C(C(N)=O)C(N)=O
inactive: [6] 100 % of control | [7] 100 % of control

OCCN(Cc1ccccc1)C(c1ccccc1)c1ccccc1
inactive: [8] 91 % of control | [9] 97 % of control | [10] 97 % of control

COc1cc([N+](=O)[O-])c(C)[n+]([O-])n1
inactive: [4] 96 % of control | [5] 104 % of control

C[N+](C)(C)C(Cc1c[nH]c2ccccc12)C(=O)O (stereo not given)
inactive: [11] 91 % of control | dose: 100.0 mg/kg/injection, schedule: Q04DX003 (ip), vehicle: saline 96 % of control and 100 % of control | [12] 101 % of control | dose: 200.0 mg/kg/injection, schedule: Q04DX003 (ip), vehicle: saline 105 % of control and 97 % of control | [13] 95 % of control | dose: 400.0 mg/kg/injection, schedule: Q04DX003 (ip), vehicle: saline 94 % of control and 95 % of control

Cc1ccc([N+](=O)[O-])cc1NC(=O)NNC(=O)CNC(=O)NCc1ccco1
inactive: [1] 91 % of control | [2] 89 % of control | [3] 97 % of control

Nc1ncnc2c1ncn2C1OC(C(N)C(=O)O)C(O)C1O (stereo not given)
inactive: dose: 6.25 mg/kg/injection, schedule: Q01DX005 (ip), vehicle: distilled water + Tween-80 101 % of control | dose: 12.5 mg/kg/injection, schedule: Q01DX005 (ip), vehicle: distilled water + Tween-80 96 % of control | dose: 25.0 mg/kg/injection, schedule: Q01DX005 (ip), vehicle: distilled water + Tween-80 98 % of control | dose: 50.0 mg/kg/injection, schedule: Q01DX005 (ip), vehicle: distilled water + Tween-80 98 % of control | dose: 100.0 mg/kg/injection, schedule: Q01DX005 (ip), vehicle: distilled water + Tween-80 103 % of control

CN(C)N=Nc1ccc(Cl)cc1
inactive: dose: 79.0 mg/kg/injection, schedule: Q01DX009 (ip), vehicle: Klucel (hydroxypropylcellulose) (HPC) 111 % of control | dose: 118.0 mg/kg/injection, schedule: Q01DX009 (ip), vehicle: Klucel (hydroxypropylcellulose) (HPC) 119 % of control

CC(=O)N(C(C)=O)c1nc(Br)c2ccccc2c1-c1ccc([N+](=O)[O-])cc1
inactive: dose: 50.0 mg/kg/injection, schedule: Q04DX003 (ip), vehicle: other 100 % of control | dose: 100.0 mg/kg/injection, schedule: Q04DX003 (ip), vehicle: other 94 % of control | dose: 200.0 mg/kg/injection, schedule: Q04DX003 (ip), vehicle: other 94 % of control | dose: 400.0 mg/kg/injection, schedule: Q04DX003 (ip), vehicle: other 88 % of control

CN(C(=O)Nc1ccc([N+](=O)[O-])cc1)c1ccccc1
inactive: [11] 96 % of control | [12] 98 % of control | [13] 102 % of control

N/C(=N\N=C1CCCC1)N[N+](=O)[O-]
inactive: [14] 96 % of control | [15] 102 % of control | [16] 104 % of control

CC(C)(C)C1(C)CC1(Br)Br (stereo not given)
inactive: [14] 105 % of control | [15] 96 % of control

CN(C)N=Nc1ccc(S(N)(=O)=O)cc1C(N)=O
inactive: dose: 18.8 mg/kg/injection, schedule: Q01DX009 (ip), vehicle: Klucel (hydroxypropylcellulose) (HPC) 96 % of control and 106 % of control | dose: 37.5 mg/kg/injection, schedule: Q01DX009 (ip), vehicle: Klucel (hydroxypropylcellulose) (HPC) 98 % of control and 110 % of control | dose: 75.0 mg/kg/injection, schedule: Q01DX009 (ip), vehicle: Klucel (hydroxypropylcellulose) (HPC) 120 % of control | dose: 300.0 mg/kg/injection, schedule: Q01DX009 (ip), vehicle: Klucel (hydroxypropylcellulose) (HPC) 117 % of control and 111 % of control

N/C(=N/N=C/c1ccc(O)cc1)N[N+](=O)[O-]
inactive: [8] 92 % of control | [9] 86 % of control | [10] 92 % of control

O=C1C=CC(=O)N1c1ccc(Oc2ccc(Cl)cc2)cc1
inactive: dose: 50.0 mg/kg/injection, schedule: Q01DX009 (ip), vehicle: saline with Tween-80 103 % of control | [1] 107 % of control | [2] 88 % of control

COc1cccc2c1C(=O)c1c(O)c3c(c(O)c1C2=O)C[C@@](O)(/C(C)=N\O)C[C@@H]3OC1CC(N)C(O)C(C)O1 (stereo not given in full)
inactive: dose: 3.13 mg/kg/injection, schedule: Q01DX009 (ip), vehicle: water 108 % of control | dose: 6.25 mg/kg/injection, schedule: Q01DX009 (ip), vehicle: water 112 % of control | dose: 25.0 mg/kg/injection, schedule: Q01DX009 (ip), vehicle: water 98 % of control

CC(C)CCCC(C)C1CCC2C3CC4OC45CC(O)CCC5(C)C3CCC12C (stereo not given)
inactive: [14] 96 % of control | [15] 90 % of control | [16] 96 % of control

CN(C)CCC(C#N)(c1ccccc1)c1ccccc1
inactive: dose: 75.0 mg/kg/injection, schedule: Q01DX001 (ip), vehicle: saline 102 % of control | dose: 150.0 mg/kg/injection, schedule: Q01DX001 (ip), vehicle: saline 100 % of control

C=C(C)[C@]12CC(C)C34OC(/C=C\C=C\CCCCCCCCC)(O[C@@H]1[C@@H]3[C@@H]1O[C@]1(CO)[C@@H](O)[C@]1(O)C(=O)C(C)=C[C@@H]41)O2 (stereo not given in full)
inactive: dose: 0.01 mg/kg/injection, schedule: Q01DX009 (ip), vehicle: distilled water + alcohol 102 % of control | dose: 0.02 mg/kg/injection, schedule: Q01DX009 (ip), vehicle: distilled water + alcohol 94 % of control | dose: 0.04 mg/kg/injection, schedule: Q01DX009 (ip), vehicle: distilled water + alcohol 100 % of control | dose: 0.09 mg/kg/injection, schedule: Q01DX009 (ip), vehicle: alcohol 95 % of control | dose: 0.09 mg/kg/injection, schedule: Q01DX009 (ip), vehicle: distilled water + alcohol 96 % of control | dose: 0.19 mg/kg/injection, schedule: Q01DX009 (ip), vehicle: alcohol 100 % of control | dose: 0.38 mg/kg/injection, schedule: Q01DX009 (ip), vehicle: alcohol 101 % of control | dose: 0.75 mg/kg/injection, schedule: Q01DX009 (ip), vehicle: alcohol 112 % of control | dose: 1.5 mg/kg/injection, schedule: Q01DX009 (ip), vehicle: alcohol 117 % of control
